According to the NIST ThermoML archive (doi:10.1021/acs.jced.7b00440):
Numbers after ± are expanded uncertainties.

Settings: 100 kPa, Liquid; for viscosity: Capillary tube (Ostwald / Ubbelohde) method; for mass density: Vibrating tube method

For `CCCCO` [butan-1-ol], the viscosity (293.15 K) was 2.97 ± 0.056 mPa·s, the mass density (293.15 K) was 809.01 ± 0.2 kg/m3 and the viscosity (298.15 K) was 2.547 ± 0.048 mPa·s. It also gave a mass density (298.15 K) of 805.87 ± 0.2 kg/m3, a viscosity (303.15 K) of 2.237 ± 0.042 mPa·s and a mass density (303.15 K) of 802.06 ± 0.21 kg/m3. It also gave a viscosity (308.15 K) of 1.98 ± 0.038 mPa·s, a mass density (308.15 K) of 798.18 ± 0.21 kg/m3 and a viscosity (313.15 K) of 1.757 ± 0.033 mPa·s. The mass density (313.15 K) was 794.26 ± 0.21 kg/m3, the viscosity (318.15 K) was 1.568 ± 0.03 mPa·s and the mass density (318.15 K) was 790.3 ± 0.21 kg/m3. For the same molecule, the viscosity (323.15 K) was 1.404 ± 0.027 mPa·s, the mass density (323.15 K) was 786.29 ± 0.21 kg/m3 and the viscosity (328.15 K) was 1.255 ± 0.024 mPa·s. The mass density (328.15 K) was 782.02 ± 0.21 kg/m3, the viscosity (333.15 K) was 1.132 ± 0.022 mPa·s and the mass density (333.15 K) was 777.81 ± 0.21 kg/m3.
With `CC(C)CO` [2-methyl-1-propanol] the viscosity (293.15 K) was 4.077 ± 0.079 mPa·s, the mass density (293.15 K) was 801.98 ± 0.27 kg/m3 and the viscosity (298.15 K) was 3.394 ± 0.066 mPa·s. For the same molecule, the mass density (298.15 K) was 798.13 ± 0.27 kg/m3, the viscosity (303.15 K) was 2.949 ± 0.057 mPa·s and the mass density (303.15 K) was 794.24 ± 0.27 kg/m3. For the same molecule, the viscosity (308.15 K) was 2.54 ± 0.049 mPa·s, the mass density (308.15 K) was 790.29 ± 0.27 kg/m3 and the viscosity (313.15 K) was 2.208 ± 0.043 mPa·s. For the same molecule, the mass density (313.15 K) was 786.3 ± 0.27 kg/m3, the viscosity (318.15 K) was 1.855 ± 0.036 mPa·s and the mass density (318.15 K) was 782.24 ± 0.27 kg/m3. It also gave a viscosity (323.15 K) of 1.621 ± 0.032 mPa·s, a mass density (323.15 K) of 778.12 ± 0.27 kg/m3 and a viscosity (328.15 K) of 1.425 ± 0.028 mPa·s. The mass density (328.15 K) was 773.92 ± 0.27 kg/m3, the viscosity (333.15 K) was 1.25 ± 0.024 mPa·s and the mass density (333.15 K) was 769.65 ± 0.27 kg/m3.
`CCC(C)O` (centres undefined) [butan-2-ol] gave a viscosity (293.15 K) of 3.742 ± 0.071 mPa·s, a mass density (293.15 K) of 807.17 ± 0.2 kg/m3 and a viscosity (298.15 K) of 3.093 ± 0.059 mPa·s. The mass density (298.15 K) was 803.05 ± 0.21 kg/m3, the viscosity (303.15 K) was 2.579 ± 0.049 mPa·s and the mass density (303.15 K) was 798.85 ± 0.21 kg/m3. For the same molecule, the viscosity (308.15 K) was 2.147 ± 0.041 mPa·s, the mass density (308.15 K) was 794.55 ± 0.21 kg/m3 and the viscosity (313.15 K) was 1.826 ± 0.035 mPa·s. It also gave a mass density (313.15 K) of 790.16 ± 0.21 kg/m3, a viscosity (318.15 K) of 1.555 ± 0.03 mPa·s and a mass density (318.15 K) of 785.66 ± 0.21 kg/m3. For the same molecule, the viscosity (323.15 K) was 1.337 ± 0.025 mPa·s, the mass density (323.15 K) was 781.05 ± 0.21 kg/m3 and the viscosity (328.15 K) was 1.142 ± 0.022 mPa·s. The mass density (328.15 K) was 776.34 ± 0.21 kg/m3, the viscosity (333.15 K) was 0.992 ± 0.019 mPa·s and the mass density (333.15 K) was 771.51 ± 0.21 kg/m3.
